Data set [1] concerns the target T1, UGT2B7 (Homo sapiens, UniProt P16662).
T1 sequence (P16662 24-529): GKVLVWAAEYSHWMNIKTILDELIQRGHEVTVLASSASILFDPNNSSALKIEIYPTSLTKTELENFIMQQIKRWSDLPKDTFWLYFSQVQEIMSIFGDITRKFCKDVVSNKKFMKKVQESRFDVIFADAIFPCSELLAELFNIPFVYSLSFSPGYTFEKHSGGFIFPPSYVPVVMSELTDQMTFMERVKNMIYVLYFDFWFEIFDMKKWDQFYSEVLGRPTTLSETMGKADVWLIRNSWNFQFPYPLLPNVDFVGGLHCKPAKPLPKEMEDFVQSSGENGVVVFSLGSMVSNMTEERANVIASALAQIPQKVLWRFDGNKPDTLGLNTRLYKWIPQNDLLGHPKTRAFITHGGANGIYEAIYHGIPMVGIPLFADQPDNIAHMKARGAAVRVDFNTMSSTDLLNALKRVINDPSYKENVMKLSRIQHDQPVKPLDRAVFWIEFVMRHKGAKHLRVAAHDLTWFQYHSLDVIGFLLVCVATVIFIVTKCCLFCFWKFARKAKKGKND
Put plainly: Screening for aprepitant glucuronidation, UGT2B7 Supersomes. The note with it: UGT2B7, 5 and 250 µM aprepitant. The class given is in vitro ADME.

Data set [2] addresses T2, UGT2B10 (Homo sapiens, UniProt P36537).
T2 sequence (P36537 24-528): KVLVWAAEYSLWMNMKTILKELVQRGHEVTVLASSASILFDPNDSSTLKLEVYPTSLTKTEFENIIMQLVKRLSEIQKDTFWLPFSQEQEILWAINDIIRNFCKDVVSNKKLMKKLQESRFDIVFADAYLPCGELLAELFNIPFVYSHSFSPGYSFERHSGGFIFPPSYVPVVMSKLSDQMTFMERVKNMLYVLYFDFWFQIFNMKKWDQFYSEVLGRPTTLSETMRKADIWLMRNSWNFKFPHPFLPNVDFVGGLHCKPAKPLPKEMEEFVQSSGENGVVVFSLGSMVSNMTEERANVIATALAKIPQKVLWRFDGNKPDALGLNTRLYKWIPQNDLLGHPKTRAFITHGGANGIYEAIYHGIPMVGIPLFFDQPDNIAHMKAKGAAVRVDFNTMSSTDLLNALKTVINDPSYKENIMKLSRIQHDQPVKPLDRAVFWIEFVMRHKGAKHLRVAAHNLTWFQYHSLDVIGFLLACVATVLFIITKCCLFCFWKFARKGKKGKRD
As to the kind of experiment: Screening for aprepitant glucuronidation, UGT2B10 Supersomes. The class given is in vitro ADME. The note with it: UGT2B10, 5 and 250 µM aprepitant.

In data set [3] the target is T3, UGT2B17 (Homo sapiens, UniProt O75795).
T3 sequence (O75795 24-530): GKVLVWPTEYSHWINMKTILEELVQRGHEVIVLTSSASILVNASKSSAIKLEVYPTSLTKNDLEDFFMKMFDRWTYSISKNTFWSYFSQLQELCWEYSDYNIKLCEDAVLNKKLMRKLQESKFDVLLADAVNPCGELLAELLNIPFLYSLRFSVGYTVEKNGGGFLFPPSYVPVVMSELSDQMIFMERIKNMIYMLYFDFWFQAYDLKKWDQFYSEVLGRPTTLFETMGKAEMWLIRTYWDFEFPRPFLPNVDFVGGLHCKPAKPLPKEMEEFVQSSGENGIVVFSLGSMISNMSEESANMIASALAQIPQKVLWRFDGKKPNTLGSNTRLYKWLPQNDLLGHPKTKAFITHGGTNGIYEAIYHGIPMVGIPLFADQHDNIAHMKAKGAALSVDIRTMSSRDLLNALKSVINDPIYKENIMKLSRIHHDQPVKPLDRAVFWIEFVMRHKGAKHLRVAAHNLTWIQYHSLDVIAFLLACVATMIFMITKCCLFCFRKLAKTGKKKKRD
Put plainly: Screening for aprepitant glucuronidation, UGT2B17 Supersomes. The data set is classed as in vitro ADME. The note with it: UGT2B17, 5 and 250 µM aprepitant.

Data set [4] concerns the target T4, UGT1A6 (Homo sapiens, UniProt P19224).
T4 sequence (P19224 27-532): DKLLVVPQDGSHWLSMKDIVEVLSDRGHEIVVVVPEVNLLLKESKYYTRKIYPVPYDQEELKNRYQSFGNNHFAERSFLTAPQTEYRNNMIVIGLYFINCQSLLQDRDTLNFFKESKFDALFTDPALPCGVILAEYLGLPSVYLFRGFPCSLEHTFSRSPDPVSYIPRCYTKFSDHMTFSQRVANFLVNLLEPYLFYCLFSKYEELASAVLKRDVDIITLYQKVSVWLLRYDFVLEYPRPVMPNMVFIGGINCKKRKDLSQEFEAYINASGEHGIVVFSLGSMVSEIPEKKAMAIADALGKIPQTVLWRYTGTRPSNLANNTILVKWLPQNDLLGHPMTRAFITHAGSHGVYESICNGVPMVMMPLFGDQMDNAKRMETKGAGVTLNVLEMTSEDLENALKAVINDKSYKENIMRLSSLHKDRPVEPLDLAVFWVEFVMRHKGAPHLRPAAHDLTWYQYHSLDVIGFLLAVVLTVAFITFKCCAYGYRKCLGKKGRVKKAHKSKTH
Put plainly: Inhibition by aprepitant of UGT1A6. The note with it: UGT1A6 enzyme, pH 7.5, probe 4-MU. The data set is classed as in vitro ADME.

The target of data set [5] is T5, UGT1A4 (Homo sapiens, UniProt P22310).
T5 sequence (P22310 29-534): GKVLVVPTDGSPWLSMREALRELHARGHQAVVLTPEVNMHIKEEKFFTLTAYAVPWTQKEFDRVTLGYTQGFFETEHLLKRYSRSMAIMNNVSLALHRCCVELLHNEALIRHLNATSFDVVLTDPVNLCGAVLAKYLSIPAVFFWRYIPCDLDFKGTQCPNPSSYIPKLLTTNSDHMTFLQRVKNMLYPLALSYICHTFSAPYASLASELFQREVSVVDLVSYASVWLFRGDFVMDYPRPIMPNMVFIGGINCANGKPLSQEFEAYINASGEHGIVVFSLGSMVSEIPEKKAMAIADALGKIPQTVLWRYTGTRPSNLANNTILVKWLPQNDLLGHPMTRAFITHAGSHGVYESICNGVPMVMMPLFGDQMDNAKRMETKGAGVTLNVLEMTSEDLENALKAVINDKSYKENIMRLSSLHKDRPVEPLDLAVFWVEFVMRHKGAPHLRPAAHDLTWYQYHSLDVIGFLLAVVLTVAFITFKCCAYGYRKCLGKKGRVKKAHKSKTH
Put plainly: Inhibition by aprepitant of UGT1A4. The class given is in vitro ADME. The note with it: UGT1A4 enzyme, probe imipramine.

The conditions of data set [6]: ref Merck 2003; cited from earlier work.
The conditions of data set [7]: ref Lasseter et al., 2007, Takahashi et al., 2011; cited from earlier work.

Data on one molecule can be found in paper PMC4844176 (Xenobiotica; the fate of foreign compounds in biological …, 2015).

As for `C[C@@H](O[C@H]1OCCN(Cc2n[nH]c(=O)[nH]2)[C@H]1c1ccc(F)cc1)c1cc(C(F)(F)F)cc(C(F)(F)F)c1` [aprepitant, Aprepitant], the AP-G formation entry in data set [1], in data set [2] and in data set [3] was “not detected” throughout. Also, the inhibition at 10 µM in data set [4] was determined as 19%. In data set [5], the inhibition at 60 min, 10 µM is 18%. The “mean absolute oral bioavailability” value in data set [6] is recorded as 60–65%. The “systemic circulation concentration in patients” value in data set [7] was “approximately 5 µM”.
